These results are taken from patent US10519147B2 (Merck Sharp & Dohme Corp., priority 2015, dated 2019).

SMILES strings stand for the structures.

In general, IC50 refers to the concentration that gives 50% inhibition.

One assay concerns the target T1, human Nav1.7 (Homo sapiens, UniProt Q15858).
T1 construct: expressed in transfected cells; host or cells: HEK 293
In words: IonWorks Quattro automated patch-clamp, inactivated state block of Nav1.7. The note with it: channels stably expressed in HEK 293 cells; double-pulse protocol, inactivated state block; read-out: potency for the Nav 1.7 sodium ion channel (IC50, as measured by IonWorks). The assay is classed as cell-based. In a few lines: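 HEK293 stable lines, IonWorks PPC patch clamp (nystatin/amphotericin access); double-pulse protocol giving ~50% inactivation: holding −100 mV (Nav1.7) or −110 mV (Nav1.5), 1000 ms prepulse to −10 or −30 mV, 10 ms repolarization, 10 ms test pulse. Peak current inhibition versus concentration fitted to Hill equation for IC50.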
For orientation: In patch-clamp work, channel activity is measured electrically.

Another assay deals with T2, human Nav1.5 (Homo sapiens, UniProt Q14524).
T2 construct: expressed in transfected cells; host or cells: HEK 293
T2 sequence (Q14524 whole entry): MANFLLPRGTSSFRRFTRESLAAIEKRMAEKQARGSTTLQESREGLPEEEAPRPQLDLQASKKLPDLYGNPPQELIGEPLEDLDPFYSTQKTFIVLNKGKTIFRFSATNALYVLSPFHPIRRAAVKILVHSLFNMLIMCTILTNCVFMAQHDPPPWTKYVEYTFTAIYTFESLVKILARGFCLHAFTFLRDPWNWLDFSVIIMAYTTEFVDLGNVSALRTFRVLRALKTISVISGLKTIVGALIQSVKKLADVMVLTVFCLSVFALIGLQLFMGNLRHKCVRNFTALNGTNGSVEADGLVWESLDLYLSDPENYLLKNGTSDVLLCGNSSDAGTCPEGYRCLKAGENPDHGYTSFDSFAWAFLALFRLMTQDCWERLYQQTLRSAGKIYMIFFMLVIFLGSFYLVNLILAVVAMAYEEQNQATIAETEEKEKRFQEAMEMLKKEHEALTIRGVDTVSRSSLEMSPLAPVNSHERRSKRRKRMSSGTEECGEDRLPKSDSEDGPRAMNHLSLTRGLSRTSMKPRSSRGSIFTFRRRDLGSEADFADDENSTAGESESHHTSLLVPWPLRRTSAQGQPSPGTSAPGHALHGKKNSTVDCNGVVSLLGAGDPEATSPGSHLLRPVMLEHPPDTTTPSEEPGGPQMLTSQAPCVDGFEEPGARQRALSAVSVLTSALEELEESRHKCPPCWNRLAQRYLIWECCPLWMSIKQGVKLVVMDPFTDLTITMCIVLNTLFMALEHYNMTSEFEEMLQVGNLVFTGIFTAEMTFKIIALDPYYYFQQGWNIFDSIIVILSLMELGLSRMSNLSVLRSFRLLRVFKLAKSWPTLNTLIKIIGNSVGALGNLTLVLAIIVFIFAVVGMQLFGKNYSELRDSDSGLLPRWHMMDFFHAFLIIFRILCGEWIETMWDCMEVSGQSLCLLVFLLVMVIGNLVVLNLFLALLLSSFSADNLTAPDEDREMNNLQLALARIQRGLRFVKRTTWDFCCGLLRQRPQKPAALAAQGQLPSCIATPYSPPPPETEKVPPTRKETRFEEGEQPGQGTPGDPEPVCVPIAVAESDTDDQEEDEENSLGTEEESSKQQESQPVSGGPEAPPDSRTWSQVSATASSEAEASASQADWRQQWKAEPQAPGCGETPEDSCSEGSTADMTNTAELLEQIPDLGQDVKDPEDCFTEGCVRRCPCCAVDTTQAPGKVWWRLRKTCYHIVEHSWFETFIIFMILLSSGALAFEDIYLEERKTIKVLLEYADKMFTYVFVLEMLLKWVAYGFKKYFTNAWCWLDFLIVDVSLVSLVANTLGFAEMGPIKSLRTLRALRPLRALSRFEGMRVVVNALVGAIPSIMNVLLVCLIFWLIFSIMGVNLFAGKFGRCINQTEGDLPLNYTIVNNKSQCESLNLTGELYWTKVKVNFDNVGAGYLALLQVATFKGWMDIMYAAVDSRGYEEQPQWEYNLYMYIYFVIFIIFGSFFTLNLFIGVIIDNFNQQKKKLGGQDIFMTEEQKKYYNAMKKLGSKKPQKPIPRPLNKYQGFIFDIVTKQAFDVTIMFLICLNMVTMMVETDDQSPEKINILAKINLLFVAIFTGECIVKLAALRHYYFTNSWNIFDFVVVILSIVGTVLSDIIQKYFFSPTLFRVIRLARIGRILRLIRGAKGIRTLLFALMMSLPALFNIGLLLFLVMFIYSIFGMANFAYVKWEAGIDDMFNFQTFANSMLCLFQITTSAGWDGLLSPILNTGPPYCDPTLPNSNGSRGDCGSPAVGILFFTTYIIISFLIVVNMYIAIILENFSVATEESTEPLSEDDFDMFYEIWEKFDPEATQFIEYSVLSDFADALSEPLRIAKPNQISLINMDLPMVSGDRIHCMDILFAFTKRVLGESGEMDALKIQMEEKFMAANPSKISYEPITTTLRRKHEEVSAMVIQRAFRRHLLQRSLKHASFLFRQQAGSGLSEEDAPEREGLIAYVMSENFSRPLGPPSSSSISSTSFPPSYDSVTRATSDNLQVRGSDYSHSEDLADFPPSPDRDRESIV
The assay is described as follows: IonWorks Quattro automated patch-clamp, Nav1.5 (selectivity against Nav1.7). The conditions noted are these: IonWorks measurement, HEK 293 cells, inactivated state block. The assay is classed as cell-based. The procedure:
Compounds were tested on human Nav1.7 and Nav1.5 channels stably expressed in HEK 293 cells. […] Cells were sealed on a planar substrate using the Population Patch […] (PPC) technology. Electrical access was obtained using both nystatin and amphotericin. A double-pulse protocol was used for the determination of IC50 values for inactivated state block. Nav1.7 and Nav1.5 expressing cells were voltage clamped at −100 mV and −110 mV, respectively. A depolarizing prepulse to −10 mV (Nav1.7) or −30 mV (Nav1.5) for 1000 ms followed by a 10 ms repolarization to −100 mV (Nav1.7) or −110 mV (Nav1.5) was given to generate fractional channel inactivation of 50%, followed by a 10 ms test pulse to −10 mV (Nav1.7) or −30 mV (Nav1.5) to measure peak current in control conditions and after compound addition. The following recording solutions were used (mM). External: 150 NaCl, 2 CaCl2, 5 KCl, 1 Mg Cl2, 10 HEPES, 12 Dextrose; internal: 120 CsF, 30 CsCl, 10 EGTA, 5 HEPES, 5 NaF, 2 MgCl2.
For all electrophysiology experiments, offline analysis was used to determine percent inhibition as a function of drug concentration. IC50 values were determined by fitting to the Hill equation.

T1 sequence (Q15858 whole entry): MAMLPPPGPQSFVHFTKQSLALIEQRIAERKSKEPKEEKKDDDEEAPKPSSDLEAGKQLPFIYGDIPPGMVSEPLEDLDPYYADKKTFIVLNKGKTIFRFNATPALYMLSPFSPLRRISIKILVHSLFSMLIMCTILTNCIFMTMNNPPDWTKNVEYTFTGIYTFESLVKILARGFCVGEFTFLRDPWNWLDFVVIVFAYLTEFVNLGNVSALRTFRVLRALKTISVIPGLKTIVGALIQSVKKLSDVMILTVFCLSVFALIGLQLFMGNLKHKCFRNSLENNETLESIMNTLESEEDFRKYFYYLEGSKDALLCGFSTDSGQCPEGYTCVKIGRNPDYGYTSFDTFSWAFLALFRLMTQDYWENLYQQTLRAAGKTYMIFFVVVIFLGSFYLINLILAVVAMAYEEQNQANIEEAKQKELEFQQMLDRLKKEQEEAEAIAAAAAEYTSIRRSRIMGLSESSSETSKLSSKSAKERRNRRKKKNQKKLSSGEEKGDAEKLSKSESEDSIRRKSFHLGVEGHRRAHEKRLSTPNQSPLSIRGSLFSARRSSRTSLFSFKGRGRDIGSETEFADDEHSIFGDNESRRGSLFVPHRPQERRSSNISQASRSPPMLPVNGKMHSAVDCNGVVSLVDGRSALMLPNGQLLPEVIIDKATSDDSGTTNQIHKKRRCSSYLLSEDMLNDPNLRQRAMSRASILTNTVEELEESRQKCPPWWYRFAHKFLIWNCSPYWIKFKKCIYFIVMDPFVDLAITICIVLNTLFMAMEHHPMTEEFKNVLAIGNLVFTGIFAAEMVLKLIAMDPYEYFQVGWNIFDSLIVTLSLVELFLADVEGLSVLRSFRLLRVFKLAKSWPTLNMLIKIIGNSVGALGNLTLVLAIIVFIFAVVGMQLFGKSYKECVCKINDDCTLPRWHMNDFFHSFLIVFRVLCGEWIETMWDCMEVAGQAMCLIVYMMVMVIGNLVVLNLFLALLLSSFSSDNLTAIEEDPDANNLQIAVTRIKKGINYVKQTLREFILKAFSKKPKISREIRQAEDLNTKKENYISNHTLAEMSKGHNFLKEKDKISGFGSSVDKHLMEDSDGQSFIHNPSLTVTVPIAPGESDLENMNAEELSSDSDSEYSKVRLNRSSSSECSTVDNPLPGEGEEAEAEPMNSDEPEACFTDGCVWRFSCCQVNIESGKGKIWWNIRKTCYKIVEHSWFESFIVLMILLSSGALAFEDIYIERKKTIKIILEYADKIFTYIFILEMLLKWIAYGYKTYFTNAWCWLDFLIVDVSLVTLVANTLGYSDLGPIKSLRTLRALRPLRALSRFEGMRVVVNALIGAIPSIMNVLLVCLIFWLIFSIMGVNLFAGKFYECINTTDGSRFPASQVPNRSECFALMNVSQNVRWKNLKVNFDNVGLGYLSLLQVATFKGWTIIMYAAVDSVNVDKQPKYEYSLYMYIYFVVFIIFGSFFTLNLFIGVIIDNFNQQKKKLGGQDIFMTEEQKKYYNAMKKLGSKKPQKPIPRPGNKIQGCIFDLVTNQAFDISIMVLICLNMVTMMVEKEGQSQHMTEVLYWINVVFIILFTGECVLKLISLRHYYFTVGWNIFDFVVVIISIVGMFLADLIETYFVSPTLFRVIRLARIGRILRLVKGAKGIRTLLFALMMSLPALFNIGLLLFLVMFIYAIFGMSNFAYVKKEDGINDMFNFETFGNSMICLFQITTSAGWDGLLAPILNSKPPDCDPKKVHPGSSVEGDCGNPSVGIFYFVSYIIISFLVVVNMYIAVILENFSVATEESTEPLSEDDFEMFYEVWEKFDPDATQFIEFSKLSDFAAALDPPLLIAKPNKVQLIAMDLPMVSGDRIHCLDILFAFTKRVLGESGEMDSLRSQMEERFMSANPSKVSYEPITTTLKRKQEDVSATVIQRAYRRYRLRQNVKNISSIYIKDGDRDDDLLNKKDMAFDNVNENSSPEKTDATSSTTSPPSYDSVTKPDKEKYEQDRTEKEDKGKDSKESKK

As to `N[C@H]1CCC[C@H]1NCCCCNc1cc(F)c(S(=O)(=O)Nc2ncc(F)s2)cc1Cl` [Ex 16-64, 4-[(4-{[(1R,2S)-2-aminocyclopentyl]amino}butyl)amino]-5-chloro-2-fluoro-N-(5-fluoro-1,3-thiazol-2-yl) benzenesulfonamide], on human Nav1.7, the half-maximal inhibitory concentration (IC50) came out at 23 nM. The “ratio of Nav 1.7 potency:Nav 1.5 potency” value at human Nav1.5 was more than 1430.

`C[C@@H](CN)NCCCCNc1cc(F)c(S(=O)(=O)Nc2nccs2)cc1Cl` [Ex 16-68, 4-[(4-{[(1S)-2-amino-1-methylethyl]amino}butyl)amino]-5-chloro-2-fluoro-N-1,3-thiazol-2-ylbenzenesulfonamide]: the IC50 at human Nav1.7 is 20 nM. Besides, the “ratio of Nav 1.7 potency:Nav 1.5 potency” value at human Nav1.5 is listed as more than 1650.

In the case of `N[C@H]1CCC[C@@H]1NCCCCNc1cc(F)c(S(=O)(=O)Nc2ncns2)cc1Cl` [Ex 16-70, 4-[(4-{[(1S,2S)-2-aminocyclopentyl]amino}butyl)amino]-5-chloro-2-fluoro-N-1,2,4-thiadiazol-5-ylbenzenesulfonamide], on human Nav1.7, the half-maximal inhibitory concentration (IC50) came out at 8.5 nM. Also, the “ratio of Nav 1.7 potency:Nav 1.5 potency” value at human Nav1.5 is more than 2710.

Turning to `N[C@H]1CCC[C@@H]1NCCCCNc1cc(F)c(S(=O)(=O)Nc2ncc(F)s2)cc1Cl` [Ex 16-71, 4-[(4-{[(1S,2S)-2-aminocyclopentyl]amino}butyl)amino]-5-chloro-2-fluoro-N-(5-fluoro-1,3-thiazol-2-yl)benzenesulfonamide], the half-maximal inhibitory concentration (IC50) at human Nav1.7 worked out at 7 nM. Moreover, the “ratio of Nav 1.7 potency:Nav 1.5 potency” value at human Nav1.5 is listed as more than 4710.

In the case of `O=S(=O)(Nc1nccs1)c1cc(Cl)c(NCCCCNC[C@@H]2CCN2)cc1F` [Ex 16-74, 4-[(4-{[(2S)-azetidin-2-ylmethyl]amino}butyl)amino]-5-chloro-2-fluoro-N-1,3-thiazol-2-ylbenzenesulfonamide], the IC50 on human Nav1.7 is 77 nM. Also, the “ratio of Nav 1.7 potency:Nav 1.5 potency” value on human Nav1.5 is listed as more than 429.

As for `O=S(=O)(Nc1nccs1)c1cc(Cl)c(NCCCCNC[C@H]2CCN2)cc1F` [Ex 16-75, 4-[(4-{[(2R)-azetidin-2-ylmethyl]amino}butyl)amino]-5-chloro-2-fluoro-N-1,3-thiazol-2-ylbenzenesulfonamide], the IC50 on human Nav1.7 came to 41 nM. Also, the “ratio of Nav 1.7 potency:Nav 1.5 potency” value at human Nav1.5 is more than 805.

Turning to `O=S(=O)(Nc1ncns1)c1cc(Br)c(NCCCCNC[C@@H]2CCN2)cc1F` [Ex 16-76, 4-[(4-{[(2S)-azetidin-2-ylmethyl]amino}butyl)amino]-5-bromo-2-fluoro-N-1,2,4-thiadiazol-5-ylbenzenesulfonamide], on human Nav1.7, the IC50 was 17 nM. Also, the “ratio of Nav 1.7 potency:Nav 1.5 potency” value on human Nav1.5 is listed as more than 1940.

As to `O=S(=O)(Nc1ncns1)c1cc(Br)c(NCCCCNC[C@H]2CCN2)cc1F` [Ex 16-77, 4-[(4-{[(2R)-azetidin-2-ylmethyl]amino}butyl)amino]-5-bromo-2-fluoro-N-1,2,4-thiadiazol-5-ylbenzenesulfonamide], the IC50 at human Nav1.7 came to 24 nM. For the same molecule, the “ratio of Nav 1.7 potency:Nav 1.5 potency” value on human Nav1.5 is listed as more than 1380.

Consider `C[C@H](CCN)NCCCCNc1cc(F)c(S(=O)(=O)Nc2ncns2)cc1Br` [Ex 16-79, 4-[4-[[(1R)-3-amino-1-methyl-propyl]amino]butylamino]-5-bromo-2-fluoro-N-(1,2,4-thiadiazol-5-yl)benzenesulfonamide], for which the half-maximal inhibitory concentration (IC50) at human Nav1.7 turned out to be 5.4 nM. Also, at human Nav1.5, the “ratio of Nav 1.7 potency:Nav 1.5 potency” value came out at 4260.

On to `C[C@H](N)CNCCCCNc1cc(F)c(S(=O)(=O)Nc2ncns2)cc1Br` [Ex 16-80, 4-[4-[[(2S)-2-aminopropyl]amino]butylamino]-5-bromo-2-fluoro-N-(1,2,4-thiadiazol-5-yl)benzenesulfonamide], for which the concentration for half-maximal inhibition (IC50) at human Nav1.7 was 3.1 nM. For the same molecule, the “ratio of Nav 1.7 potency:Nav 1.5 potency” value at human Nav1.5 is reported as more than 10600.

For the molecule `NC1CCC1NCCCCNc1cc(F)c(S(=O)(=O)Nc2ncns2)cc1Cl` (stereo not drawn) [Ex 16-81, 4-[4-[(2-aminocyclobutyl)amino]butylamino]-5-chloro-2-fluoro-N-(1,2,4-thiadiazol-5-yl) benzenesulfonamide], the IC50 at human Nav1.7 was determined as 4.9 nM. Besides, the “ratio of Nav 1.7 potency:Nav 1.5 potency” value on human Nav1.5 was more than 6700.

As for `CC(C)C[C@@H](CNCCCCNc1cc(F)c(S(=O)(=O)Nc2ncc(F)s2)cc1Cl)[C@@H](C)N` [Ex 16-84, 4-((4-(((S)-2-((R)-1-aminoethyl)-4-methylpentyl)-amino)butyl)amino)-5-chloro-2-fluoro-N-(5-fluorothiazol-2-yl)benzenesulfonamide], the IC50 at human Nav1.7 came to 6.1 nM. In addition, the “ratio of Nav 1.7 potency:Nav 1.5 potency” value at human Nav1.5 is reported as more than 5400.

As to `CC(C)C[C@@H](CNCCCCNc1cc(F)c(S(=O)(=O)Nc2ncns2)cc1Cl)[C@@H](C)N` [Ex 16-85, 4-((4-(((S)-2-((R)-1-aminoethyl)-4-methylpentyl)-amino)butyl)amino)-5-chloro-2-fluoro-N-(1,2,4-thiadiazol-5-yl) benzenesulfonamide], at human Nav1.7, the IC50 was 4.5 nM. In addition, the “ratio of Nav 1.7 potency:Nav 1.5 potency” value on human Nav1.5 is listed as more than 7330.

With `N[C@@H]1CCC[C@H]1NCCCCNc1cc(F)c(S(=O)(=O)Nc2ncns2)cc1F` [Ex 16-86, 4-[4-[[(1R,2R)-2-aminocyclopentyl]amino]butylamino]-2,5-difluoro-N-(1,2,4-thiadiazol-5-yl)benzenesulfonamide], the IC50 at human Nav1.7 was found to be 39 nM. Also, the “ratio of Nav 1.7 potency:Nav 1.5 potency” value on human Nav1.5 is more than 850.

Take `NCCNCCCCNc1cc(F)c(S(=O)(=O)Nc2ncns2)cc1Br` [Ex 16-88, 4-[4-(2-aminoethylamino)butylamino]-5-bromo-2-fluoro-N-(1,2,4-thiadiazol-5-yl)benzenesulfonamide]: the IC50 on human Nav1.7 is 9.6 nM. In addition, on human Nav1.5, the “ratio of Nav 1.7 potency:Nav 1.5 potency” value was more than 3400.

As to `CCNCCNCCCCNc1cc(F)c(S(=O)(=O)Nc2ncns2)cc1Br` [Ex 16-92, 5-bromo-4-[4-[2-(ethylamino)ethylamino]butylamino]-2-fluoro-N-(1,2,4-thiadiazol-5-yl)benzenesulfonamide], the half-inhibitory concentration (IC50) on human Nav1.7 amounted to 3.4 nM. On human Nav1.5, the “ratio of Nav 1.7 potency:Nav 1.5 potency” value is given as more than 9700.

`N[C@@H]1CCC[C@@H]1NCCCCNc1cc(F)c(S(=O)(=O)Nc2ncns2)cc1Br` [Ex 16-93, 4-[4-[[(1S,2R)-2-aminocyclopentyl]amino]butylamino]-5-bromo-2-fluoro-N-(1,2,4-thiadiazol-5-yl)benzenesulfonamide]: the 50% inhibitory concentration (IC50) on human Nav1.7 was 41 nM. Further, the “ratio of Nav 1.7 potency:Nav 1.5 potency” value at human Nav1.5 was more than 800.

As to `N[C@@H]1CCC[C@H]1NCCCCNc1cc(F)c(S(=O)(=O)Nc2ncns2)cc1Br` [Ex 16-94, 4-[4-[[(1R,2R)-2-aminocyclopentyl]amino]butylamino]-5-bromo-2-fluoro-N-(1,2,4-thiadiazol-5-yl)benzenesulfonamide], the IC50 on human Nav1.7 is 7.3 nM. The “ratio of Nav 1.7 potency:Nav 1.5 potency” value at human Nav1.5 came to 3150.

For `N[C@H]1CC[C@H](NCCCCNc2cc(F)c(S(=O)(=O)Nc3ncns3)cc2Br)C1` [Ex 16-95, 4-[4-[[(1S,3S)-3-aminocyclopentyl]amino]butylamino]-5-bromo-2-fluoro-N-(1,2,4-thiadiazol-5-yl)benzenesulfonamide], at human Nav1.7, the half-maximal inhibitory concentration (IC50) worked out at 35 nM. For the same molecule, the “ratio of Nav 1.7 potency:Nav 1.5 potency” value on human Nav1.5 is given as more than 940.

On to `NCC1(NCCCCNc2cc(F)c(S(=O)(=O)Nc3ncns3)cc2Br)CC1` [Ex 16-98, 4-[4-[[1-(aminomethyl)cyclopropyl]amino]butylamino]-5-bromo-2-fluoro-N-(1,2,4-thiadiazol-5-yl) benzenesulfonamide], for which the IC50 on human Nav1.7 amounted to 8.6 nM. At human Nav1.5, the “ratio of Nav 1.7 potency:Nav 1.5 potency” value is given as more than 3840.

Consider `C[C@@H](N)CNCCCCNc1cc(F)c(S(=O)(=O)Nc2ncns2)cc1Br` [Ex 16-99, 4-[4-[[(2R)-2-aminopropyl]amino]butylamino]-5-bromo-2-fluoro-N-(1,2,4-thiadiazol-5-yl)benzenesulfonamide], for which, on human Nav1.7, the IC50 was 5.9 nM. For the same molecule, the “ratio of Nav 1.7 potency:Nav 1.5 potency” value on human Nav1.5 was found to be 3900.
